Legend:
[1] = test system: HS-PSS; test: relative IC50 (inflection point of fitted dose-response curve, CellTox-Green cytotoxicity, 72 h; top asymptote may be below 50%); higher = less potent
How it was run: (§1)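 MPNST cell lines and primary human Schwann cells were grown for 72 h at 37 °C in 384-well plates containing five 10-fold compound dilutions. CellTox-Green, added before seeding at a final 1:1000 dilution, gave fluorescence from DNA released by disrupted cells, and signals were scaled to vehicle and positive-control wells. Curves were fitted with a four-parameter logistic model. Drug sensitivity score and relative IC50 come from these fits, with IC50 censored at the top concentration.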

[2] = test system: HSC1; test: as above
How it was run: as §1

[3] = test system: HSC2; test: as above
How it was run: as §1

[4] = test system: S1507-2; test: as above
How it was run: as §1

[5] = test system: ST8814; test: as above
How it was run: as §1

[6] = test system: STS26T; test: as above
How it was run: as §1

[7] = test system: HS-Sch-2; test: relative IC50 (inflection point of fitted dose-response curve, CellTiter-Glo viability, 72 h; top asymptote may be below 50% inhibition); higher = less potent
How it was run: (§2)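 For this screen, 384-well plates were preprinted with each compound at five concentrations in 10-fold steps and seeded with MPNST cell lines or primary human Schwann cells at 750–1000 cells per well. Incubation lasted 72 h at 37 °C, 5% CO2, and CellTiter-Glo ATP luminescence, scaled between vehicle and positive-control wells and averaged over duplicates where available, served as viability. Logistic fits with four parameters were applied. Relative IC50 (censored at the top concentration) and drug sensitivity score derive from these fits, and percent inhibition is at the top concentration.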

[8] = test system: HSC1; test: as above
How it was run: as §2

[9] = test system: HSC2; test: as above
How it was run: as §2

[10] = test system: S1507-2; test: as above
How it was run: as §2

[11] = test system: S462; test: as above
How it was run: as §2

[12] = test system: ST8814; test: as above
How it was run: as §2

[13] = test system: STS26T; test: as above
How it was run: as §2

[14] = test system: YST-1; test: as above
How it was run: as §2

[15] = test system: HS-PSS; test: as above
How it was run: as §2

## Nc1nc(OCc2cc(Br)cs2)c2[nH]cnc2n1 [Lomeguatrib]
[1]
  relative IC50: > 10 µM
[2]
  relative IC50: > 10 µM
[3]
  relative IC50: > 10 µM
[4]
  relative IC50: > 10 µM
[5]
  relative IC50: > 10 µM
[6]
  relative IC50: > 10 µM
[7]
  relative IC50: > 10 µM
[8]
  relative IC50: > 10 µM
[9]
  relative IC50: > 10 µM
[10]
  relative IC50: > 10 µM
[11]
  relative IC50: > 10 µM
[12]
  relative IC50: > 10 µM
[13]
  relative IC50: > 10 µM
[14]
  relative IC50: > 10 µM

## O=C(Nc1ccncc1)C(=O)c1cn(Cc2ccc(Cl)cc2)c2ccccc12 [Indibulin]
[1]
  relative IC50: > 10 µM
[2]
  relative IC50: 2 µM
[3]
  relative IC50: 1.58 µM
[4]
  relative IC50: 0.494 µM
[5]
  relative IC50: 0.43 µM
[6]
  relative IC50: 0.146 µM
[7]
  relative IC50: 0.739 µM
[8]
  relative IC50: 0.361 µM
[9]
  relative IC50: 0.718 µM
[10]
  relative IC50: 0.241 µM
[11]
  relative IC50: 0.334 µM
[12]
  relative IC50: 0.312 µM
[13]
  relative IC50: 0.164 µM
[14]
  relative IC50: 0.53 µM

## CS(=O)(=O)OCCCCOS(C)(=O)=O [Busulfan]
[1]
  relative IC50: > 100 µM
[2]
  relative IC50: > 100 µM
[3]
  relative IC50: > 100 µM
[4]
  relative IC50: > 100 µM
[5]
  relative IC50: > 100 µM
[6]
  relative IC50: > 100 µM
[15]
  relative IC50: > 100 µM
[8]
  relative IC50: > 100 µM
[9]
  relative IC50: > 100 µM
[10]
  relative IC50: > 100 µM
[11]
  relative IC50: > 100 µM
[12]
  relative IC50: > 100 µM
[13]
  relative IC50: > 100 µM

## C=CC(=O)N1CCC[C@@H](n2nc(-c3ccc(Oc4ccccc4)cc3)c3c(N)ncnc32)C1 [Ibrutinib]
[1]
  relative IC50: > 1 µM
[2]
  relative IC50: > 1 µM
[3]
  relative IC50: > 1 µM
[4]
  relative IC50: > 1 µM
[5]
  relative IC50: > 1 µM
[6]
  relative IC50: > 1 µM
[7]
  relative IC50: > 1 µM
[8]
  relative IC50: > 1 µM
[9]
  relative IC50: > 1 µM
[10]
  relative IC50: > 1 µM
[11]
  relative IC50: > 1 µM
[12]
  relative IC50: > 1 µM
[13]
  relative IC50: > 1 µM
[14]
  relative IC50: > 1 µM

## OC[C@H]1O[C@@H](n2cnc3c2N=CNC[C@H]3O)C[C@@H]1O [Pentostatin]
[1]
  relative IC50: > 10 µM
[2]
  relative IC50: > 10 µM
[3]
  relative IC50: > 10 µM
[4]
  relative IC50: > 10 µM
[5]
  relative IC50: > 10 µM
[6]
  relative IC50: > 10 µM
[15]
  relative IC50: > 10 µM
[7]
  relative IC50: > 10 µM
[8]
  relative IC50: > 10 µM
[9]
  relative IC50: > 10 µM
[10]
  relative IC50: > 10 µM
[11]
  relative IC50: > 10 µM
[12]
  relative IC50: > 10 µM
[13]
  relative IC50: > 10 µM

## Cn1c(Nc2ccc(C(F)(F)F)cc2)nc2cc(Oc3ccnc(-c4ncc(C(F)(F)F)[nH]4)c3)ccc21 [RAF265]
[1]
  relative IC50: > 1 µM
[2]
  relative IC50: > 1 µM
[3]
  relative IC50: > 1 µM
[4]
  relative IC50: > 1 µM
[5]
  relative IC50: > 1 µM
[6]
  relative IC50: > 1 µM
[15]
  relative IC50: 0.177 µM
[8]
  relative IC50: 0.0496 µM
[9]
  relative IC50: 0.0206 µM
[10]
  relative IC50: 0.136 µM
[11]
  relative IC50: 0.111 µM
[12]
  relative IC50: 0.107 µM
[13]
  relative IC50: 0.137 µM
[14]
  relative IC50: 0.131 µM

## CC(=O)O[C@]1(C(C)=O)CC[C@H]2[C@@H]3C=C(C)C4=CC(=O)CC[C@]4(C)[C@H]3CC[C@@]21C [Megestrol]
[2]
  relative IC50: > 10 µM
[3]
  relative IC50: > 10 µM
[4]
  relative IC50: > 10 µM
[5]
  relative IC50: > 10 µM
[6]
  relative IC50: > 10 µM
[8]
  relative IC50: > 10 µM
[9]
  relative IC50: > 10 µM
[10]
  relative IC50: > 10 µM
[11]
  relative IC50: > 10 µM
[12]
  relative IC50: > 10 µM
[13]
  relative IC50: > 10 µM

## CC[C@@]1(O)C(=O)OCc2c1cc1n(c2=O)Cc2cc3ccccc3nc2-1 [Camptotechin]
[2]
  relative IC50: 0.0757 µM
[3]
  relative IC50: 0.136 µM
[4]
  relative IC50: 0.244 µM
[5]
  relative IC50: 0.0146 µM
[6]
  relative IC50: 0.126 µM
[8]
  relative IC50: 0.0473 µM
[9]
  relative IC50: 0.0405 µM
[10]
  relative IC50: 0.1 µM
[11]
  relative IC50: 0.0302 µM
[12]
  relative IC50: 0.0307 µM
[13]
  relative IC50: 0.0628 µM

## N#Cc1ccc(C(c2ccc(C#N)cc2)n2cncn2)cc1 [Letrozole]
[1]
  relative IC50: > 10 µM
[2]
  relative IC50: > 10 µM
[3]
  relative IC50: > 10 µM
[4]
  relative IC50: > 10 µM
[5]
  relative IC50: > 10 µM
[6]
  relative IC50: > 10 µM
[8]
  relative IC50: > 10 µM
[9]
  relative IC50: > 10 µM
[10]
  relative IC50: > 10 µM
[11]
  relative IC50: > 10 µM
[12]
  relative IC50: > 10 µM
[13]
  relative IC50: > 10 µM
[14]
  relative IC50: > 10 µM

## Cn1c(CCCC(=O)O)nc2cc(N(CCCl)CCCl)ccc21 [Bendamustine]
[1]
  relative IC50: > 10 µM
[2]
  relative IC50: > 10 µM
[3]
  relative IC50: > 10 µM
[4]
  relative IC50: > 10 µM
[5]
  relative IC50: > 10 µM
[6]
  relative IC50: > 10 µM
[15]
  relative IC50: > 10 µM
[7]
  relative IC50: > 10 µM
[8]
  relative IC50: > 10 µM
[9]
  relative IC50: > 10 µM
[10]
  relative IC50: > 10 µM
[11]
  relative IC50: > 10 µM
[12]
  relative IC50: > 10 µM
[13]
  relative IC50: > 10 µM

## O=C(O)C1(C(=O)O)CCC1.[NH2-].[NH2-].[Pt+2] [Carboplatin aq]
[2]
  relative IC50: 27.6 µM
[3]
  relative IC50: 20.5 µM
[4]
  relative IC50: 37.3 µM
[5]
  relative IC50: 25.1 µM
[6]
  relative IC50: 27.3 µM
[8]
  relative IC50: 14.5 µM
[9]
  relative IC50: 14.6 µM
[10]
  relative IC50: 20.6 µM
[11]
  relative IC50: 17 µM
[12]
  relative IC50: 24.4 µM
[13]
  relative IC50: 19.5 µM

## S=P(N1CC1)(N1CC1)N1CC1 [Thio-TEPA]
[1]
  relative IC50: > 50 µM
[2]
  relative IC50: > 50 µM
[3]
  relative IC50: > 50 µM
[4]
  relative IC50: > 50 µM
[5]
  relative IC50: > 50 µM
[6]
  relative IC50: > 50 µM
[15]
  relative IC50: > 50 µM
[8]
  relative IC50: > 50 µM
[9]
  relative IC50: > 50 µM
[10]
  relative IC50: > 50 µM
[11]
  relative IC50: > 50 µM
[12]
  relative IC50: > 50 µM
[13]
  relative IC50: > 50 µM
[14]
  relative IC50: > 50 µM

## COC1=C2C[C@@H](C)C[C@H](OC)[C@H](O)[C@@H](C)/C=C(\C)[C@H](OC(N)=O)[C@@H](OC)/C=C\C=C(/C)C(=O)NC(=CC1=O)C2=O [Geldanamycin]
[2]
  relative IC50: 0.204 µM
[3]
  relative IC50: 0.211 µM
[4]
  relative IC50: 2.65 µM
[5]
  relative IC50: 1.32 µM
[6]
  relative IC50: 1.16 µM
[8]
  relative IC50: 0.363 µM
[9]
  relative IC50: 0.338 µM
[10]
  relative IC50: 1.69 µM
[11]
  relative IC50: 0.454 µM
[12]
  relative IC50: 0.765 µM
[13]
  relative IC50: 0.78 µM

## CC(C)Cn1cnc2c(N)nc3ccccc3c21 [Imiquimod]
[1]
  relative IC50: > 2.5 µM
[2]
  relative IC50: > 2.5 µM
[3]
  relative IC50: > 2.5 µM
[4]
  relative IC50: > 2.5 µM
[5]
  relative IC50: > 2.5 µM
[6]
  relative IC50: > 2.5 µM
[8]
  relative IC50: > 2.5 µM
[9]
  relative IC50: > 2.5 µM
[10]
  relative IC50: > 2.5 µM
[11]
  relative IC50: > 2.5 µM
[12]
  relative IC50: > 2.5 µM
[13]
  relative IC50: > 2.5 µM
[14]
  relative IC50: > 2.5 µM

## CCN(CC)CCCC(C)Nc1ccnc2cc(Cl)ccc12 (configuration not stated) [Chloroquine aq]
[2]
  relative IC50: 15.8 µM
[3]
  relative IC50: 19.9 µM
[4]
  relative IC50: 3.28 µM
[5]
  relative IC50: 2.82 µM
[6]
  relative IC50: 3.19 µM
[8]
  relative IC50: 12.3 µM
[9]
  relative IC50: 13.1 µM
[10]
  relative IC50: 1.8 µM
[11]
  relative IC50: 6.94 µM
[12]
  relative IC50: 3.1 µM
[13]
  relative IC50: 5.43 µM
